Assay results taken from patent publication US12357723B2, “Antimicrobial silver iodate” (Innovotech, Inc., priority 2012, dated 2025).
Like-named read-outs stand apart in the source and are kept apart here.

Assays:
[1] = Basic compatibility of Ag5IO6 with gels (visual, pH, UV-Vis, XRD); type: physicochemical
From the text: The purpose of this study was to determine whether Ag5IO6 could be incorporated into various gels without reacting with the gels. Ag5IO6 powder was combined with various commercially available hydrogels and then visually examined for stability, along with UV-Vis analysis and x-ray diffraction.
Gels selected: Guardian Laboratories AquaThik™ (Xanthan gum, PEG-180; 3% in water); Lubrajel® RC (Water, glycerin, propylene glycol, polyacrylic acid, sodium polyacrylate, 0.18% methylparaben, 0.02% propylparaben), and Lubrajel® PF (Glycerin, glyceryl acrylate/acrylic acid copolymer); SteriLub™ (unknown composition); BASF Pluronic® F127+Carbowax 600 (Polyoxyethylene-polyoxypropylene block copolymer; 18% Pluronic, 15% Carbowax 600); ConvaTec DuoDerm® Hydroactive® Sterile Gel (pectin, sodium carboxymethylcellulose); MoInlycke Normlgel® (0.9% NaCl, H2O, xanthan gum); Smith & Nephew IntraSite Gel (Water>60%, propylene glycol 10-30%, absorbent polymer<10%-crilanomer, a Graft-T starch copolymer) and SoloSite Gel (Water>60%, glycerol 10-30%, absorbent polymer<10%, allantoin<1%, antiseptic/preservative<1%); carboxymethylcellulose gel (4% in water); Cremophor; and Gelrite (0.4% in water).
For each gel, the samples were mixed in a small glass container with fine Ag5IO6 powder to generate 500 ppm Ag5IO6 in the gels. Each of the above formulations were examined for visual signs of instability, such as dramatic viscosity changes, color changes, release of gas, deposition of precipitate that appears different from the original Ag5IO6, and temperature change during stirring (heat release).
UV-Vis Analysis: Samples were diluted to 1/10th their original concentration. For UV-Vis blanks, control gels (with no Ag5IO6) were prepared as described for each gel, and diluted to 1/10th as well. UV-Vis measurements were performed between 190-500 nm.
pHs of the gel formulations were measured with and without the Ag5IO6 added using pH indicator strips.

[2] = Ag5IO6 solubility in water and saline, OECD Method (105) flask; type: physicochemical
From the text: The purpose of this study was to develop a basic understanding of the solubility (and stability) of Ag5IO6 in pure water and 0.9% (physiological saline), following OECD Method (105)—flask.

[3] = Ag5IO6 stability in solvents (isothermal TAM III heat flow, XRD); type: physicochemical
Protocol: The purpose of this study was to determine whether or not Ag5IO6 interacts with methanol, tetrahydrofuran, acetone, and acetonitrile. […] of Ag5IO6 was placed in a vial, 2 mL of the solvent was added, and the vial was placed in a TAM III for an isothermal run at room temperature for >24 h with solvent only as the reference. The heat flow was measured. After the run was complete, the solvents were allowed to flash off and the solids collected were submitted to XRD. Samples exposed following essentially the same method for only 18 h were also submitted for XRD

[4] = for Grain size: 90° C.

## [Ag+].[Ag+].[Ag+].[Ag+].[Ag+].[O-][I+]([O-])([O-])([O-])([O-])[O-] [Ag5IO6, pentasilver hexaoxoiodate]
[1]; 500 ppm Ag5IO6 in AquaThik gel
  Ag5IO6 purity by XRD after mixing into gel: 100%
[1]; 500 ppm Ag5IO6 in Cremophor gel
  XRD: reaction of Ag5IO6 with gel: no Ag5IO6 detected by the XRD analysis
[1]; 500 ppm Ag5IO6 in DuoDerm hydrogel
  XRD: reaction of Ag5IO6 with gel: remained pure
[1]; 500 ppm Ag5IO6 in Gelrite (0.4% in water)
  XRD: reaction of Ag5IO6 with gel: did not react
[1]; 500 ppm Ag5IO6 in IntraSite gel
  XRD: reaction of Ag5IO6 with gel: no reaction products
[1]; 500 ppm Ag5IO6 in Lubrajel PF
  XRD: reaction of Ag5IO6 with gel: had not reacted
[1]; 500 ppm Ag5IO6 in Lubrajel RC
  XRD: reaction of Ag5IO6 with gel: did not react
[1]; 500 ppm Ag5IO6 in Normlgel (0.9% NaCl), AgCl found
  XRD: reaction of Ag5IO6 with gel: incompatible under these conditions with this gel for long term storage
[1]; 500 ppm Ag5IO6 in Pluronic F127 plus Carbowax 600, no XRD
  Visual signs of instability after addition of Ag5IO6: undesirable physical changes in the gel
[1]; 500 ppm Ag5IO6 in SoloSite gel
  XRD: reaction of Ag5IO6 with gel: no reaction products
[1]; 500 ppm Ag5IO6 in SteriLub gel
  Ag5IO6 purity by XRD after mixing into gel: 100%
[1]; 500 ppm Ag5IO6 in carboxymethylcellulose gel (4% in water)
  XRD: reaction of Ag5IO6 with gel: not reactive
[2]; ddH2O
  Solubility: 0.02441 ± 0.00087 mg/mL
[2]; in ddH2O
  pH of solution: 8
[2]; in ddH2O, end of experiment
  Solid material converted to Ag metal (XRD): 0.1%
  Solid material remaining as Ag5IO6 (XRD): approximately 99.9%
[2]; in saline
  pH of solution: 10
[2]; in saline, end of experiment
  Solid material converted to AgCl (XRD): approximately 25%
[2]; saline (0.9%)
  Solubility: 0.00061 ± 5e-05 mg/mL
[3]
  Rank of solubility in organic solvents: methanol>>THF>acetone>acetonitrile
[3]; acetonitrile (slower onset), room temperature
  Onset of significant reaction: about 56 h
[3]; all solvents (methanol, tetrahydrofuran, acetone, acetonitrile), room temperature
  Time blended without substantial reaction: < 18 h
[3]; methanol, room temperature
  Onset of significant reaction: about 33 h
[3]; solvent printed as THE, room temperature
  Onset of significant reaction: about 56 h
[4]; Day 0
  Grain size: 14 Å
[4]; Day 14
  Grain size: 62 Å
[4]; Day 28
  Grain size: 94 Å
[4]; 672 h
  Composition remaining Ag5IO6: 100%
[4]; room temperature, extrapolated from accelerated storage
  Shelf life: > 2 years
